Laboratory results published in patent US8227604B2, “Hybrid 2-aminotetralin and aryl-substituted piperazine compounds and their use in altering CNS activity” (Wayne State University, priority 2001, dated 2012).

Experiments:
D1 receptor = molecular target: T1, D1 receptor (Homo sapiens, UniProt P21728); assay: Binding affinity at cloned human D1 receptor, [3H]SCH23390 (LHD1 cells)
T1 construct: expressed in transfected cells; host or cells: LHD1 cells
Method: LHD1 cells (human receptor) are grown and prepared as described for the HA7 cells as described hereafter. The final pellet is resuspended at 5 mg protein/80 ml in 50 mM Tris-HCl containing 120 mM of NaCl, 5 mM of KCl, 2 mM of CaCl2, and 1 mM of MgCl2, pH 7.4. To wells containing 100 μl of test drug or buffer and […] of [^3H]SCH 23390 (0.18 nM final conc.), is added 0.8 ml of cell homogenate (0.05 mg protein/well), and the plates are incubated at […] for 60 min. Nonspecific binding is determined with 1 μM of SCH 23390.

5HT1A receptor = molecular target: T2, 5HT1A receptor (Homo sapiens, UniProt P08908); assay: Binding affinity at cloned human 5HT1A receptor, [3H]8-OH-DPAT (HA7 cells)
T2 construct: expressed in transfected cells; host or cells: HA7 cells
T2 sequence (P08908 1-422): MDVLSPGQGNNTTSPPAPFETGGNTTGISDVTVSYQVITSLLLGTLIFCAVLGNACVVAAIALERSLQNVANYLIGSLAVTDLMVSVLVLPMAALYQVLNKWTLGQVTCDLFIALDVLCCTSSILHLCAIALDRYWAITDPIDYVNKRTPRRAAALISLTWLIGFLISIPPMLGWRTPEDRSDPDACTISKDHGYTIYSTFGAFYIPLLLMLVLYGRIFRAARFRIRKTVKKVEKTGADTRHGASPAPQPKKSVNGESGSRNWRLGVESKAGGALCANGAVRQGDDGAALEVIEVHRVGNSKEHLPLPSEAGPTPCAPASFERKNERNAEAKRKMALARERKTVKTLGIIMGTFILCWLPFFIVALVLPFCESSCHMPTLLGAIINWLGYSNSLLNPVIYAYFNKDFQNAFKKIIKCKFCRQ
Method: HA7 cells (human receptor) are grown to confluence in DMEM containing 10% fetal calf serum, 0.05% penicillin-streptomycin (pen-strep), and […] of G418. The cells are scraped from the 100 by 20 mm plates and centrifuged at 500·G for 5 min. The pellet is homogenized in 50 mM Tris-HCl, pH 7.7, with a polytron, centrifuged at 27,000·G and resuspended at 10 mg protein/ml in the same buffer. The homogenate is then stored at −70° C. in 1-ml aliquots.
The thawed cells are washed once and resuspended at 10 mg protein/80 ml in 25 mM Tris-HCl containing 100 μM of ascorbic acid and 10 mM of nialamide at pH 7.4. The assay is performed in triplicate in a 96-well plate. To 100 μl of [^3H]8-OH-DPAT (0.5 nM final conc), […] of test compound or buffer and 0.8 ml of cell homogenate (0.1 mg protein/well) is added to each well by a Tomtec Quadra 96. Nonspecific binding is defined using 1 μM dihydroergotamine. The plates are incubated at 25° C. for 60 min, then filtered. The incubation is terminated by rapid filtration through glass fiber filter paper on a Tomtec cell harvester. The filters are washed four times with ice-cold 50 mM Tris-HCl, pH 7.7, dried overnight, bagged with 10 ml scintillation cocktail before counting for 2 min. on a Wallac Betaplate 1205 liquid scintillation counter.

5HT2C receptor = molecular target: T3, 5HT2C receptor (Homo sapiens, UniProt P28335); assay: Binding affinity at cloned human 5HT2C receptor, [3H]Mesulergine
T3 construct: expressed in transfected cells
T3 sequence (P28335 33-458): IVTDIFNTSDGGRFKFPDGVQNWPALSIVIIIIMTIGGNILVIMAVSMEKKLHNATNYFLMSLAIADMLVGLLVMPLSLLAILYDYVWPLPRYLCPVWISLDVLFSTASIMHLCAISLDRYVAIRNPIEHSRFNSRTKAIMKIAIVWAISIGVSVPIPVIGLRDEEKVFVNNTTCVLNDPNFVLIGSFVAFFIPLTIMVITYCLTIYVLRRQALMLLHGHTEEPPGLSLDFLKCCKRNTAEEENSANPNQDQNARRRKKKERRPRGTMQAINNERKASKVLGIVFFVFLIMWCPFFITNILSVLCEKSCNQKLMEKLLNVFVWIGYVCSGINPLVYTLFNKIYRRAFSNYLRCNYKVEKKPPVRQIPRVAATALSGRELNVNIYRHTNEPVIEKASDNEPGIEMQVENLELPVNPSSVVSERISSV

D3 receptor = D3 receptor (Homo sapiens, UniProt P35462); assay: Inhibition constants for binding to cloned D3 receptor expressed in HEK cells, [3H]spiperone; conditions: D3 expressed in HEK cells
Method: Inhibition constants for binding to cloned D2L and D3 receptors expressed in HEK cells by displacing [^3H] spiperone were measured for several compounds.

T1 sequence (P21728 whole entry): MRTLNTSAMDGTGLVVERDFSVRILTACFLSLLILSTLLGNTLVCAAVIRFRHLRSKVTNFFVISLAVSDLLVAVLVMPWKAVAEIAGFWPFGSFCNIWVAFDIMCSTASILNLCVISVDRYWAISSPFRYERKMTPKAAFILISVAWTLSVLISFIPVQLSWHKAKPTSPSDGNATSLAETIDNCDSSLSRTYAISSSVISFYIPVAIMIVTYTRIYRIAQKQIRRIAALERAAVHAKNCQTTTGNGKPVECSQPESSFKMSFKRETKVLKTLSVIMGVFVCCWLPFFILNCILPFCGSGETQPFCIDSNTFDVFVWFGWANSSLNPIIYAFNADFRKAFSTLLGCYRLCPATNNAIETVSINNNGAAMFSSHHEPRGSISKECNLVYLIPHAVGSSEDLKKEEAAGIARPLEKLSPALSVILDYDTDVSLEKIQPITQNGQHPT
Sequence of D3 receptor (P35462 whole entry): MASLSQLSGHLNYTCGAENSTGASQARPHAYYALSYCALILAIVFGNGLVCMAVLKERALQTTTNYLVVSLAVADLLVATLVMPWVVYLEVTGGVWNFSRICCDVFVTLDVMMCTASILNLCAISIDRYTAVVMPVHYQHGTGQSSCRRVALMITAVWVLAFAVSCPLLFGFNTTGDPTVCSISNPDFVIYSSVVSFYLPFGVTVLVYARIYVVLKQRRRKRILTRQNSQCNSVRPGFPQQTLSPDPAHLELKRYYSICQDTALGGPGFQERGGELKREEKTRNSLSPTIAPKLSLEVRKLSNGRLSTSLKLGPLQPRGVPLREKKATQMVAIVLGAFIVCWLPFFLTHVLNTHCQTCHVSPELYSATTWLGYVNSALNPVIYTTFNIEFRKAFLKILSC

Compound | Ki (D1 receptor) [nM] | Ki (5HT1A receptor) [nM] | Ki (5HT2C receptor) [nM] | Ki (D3 receptor) [µM] | melting point [°C]
CCCN(CCCCN1CCN(c2ccccc2)CC1)C1CCc2ccc(O)cc2C1 (centres unmarked) [Compound 15b, 7-Hydroxyl-2-[N-propyl-(N-(4-phenylpiperazin-1-yl)-butyl)amino]tetralin] | 6120 ± 933 | 18.5 ± 2.46 | > 10000 | 0.00379 ± 0.0004 | 
N#CCCCN(CCCCN1CCN(c2ccccc2)CC1)C1CCc2ccc(O)cc2C1 (centres unmarked) [Compound 8, 7-Hydroxy-2-[N-butyonitrile-(N-(4-phenylpiperazin-1-yl)-butyl)amino]tetralin] | 3218 ± 7.77 | 88.31 ± 0.4 | > 10000 |  | 
O=C(NCCN(CCCCN1CCN(c2ccccc2)CC1)C1CCc2ccc(O)cc2C1)c1ccccc1 (centres unmarked) [Compound 10b, 7-Hydroxy-2-[N-(2-benzoylamino)ethyl-(N-(4-phenylpiperazin-1-yl)-butyl)amino]tetralin] | 2950 ± 238 | 164 ± 27.5 | > 10000 |  | 
O=C(NCCCCN(CCCCN1CCN(c2ccccc2)CC1)C1CCc2ccc(O)cc2C1)c1ccccc1 (centres unmarked) [Compound 10a, 7-Hydroxyl-2-[N-(4-benzoylaminobutyl)-(N-(4-phenylpiperazin-1-yl)-butyl)amino]tetralin] | 3730 ± 272 | 171 ± 32.2 | > 10000 |  | 70 to 71
